Laboratory results as given in US11390606B2, “Pyridazinone compounds and uses thereof” (Edgewise Therapeutics, Inc., priority 2018, dated 2022).

The compounds below were run against T1, skeletal myofibrils (Rabbit Psoas), myosin ATPase activity (assay: Skeletal Myofibril ATPase Assay). Conditions: skeletal myofibrils (Rabbit Psoas 0.25 mg/mL), PK/LDH-coupled NADH absorbance at 340 nm.
T1 construct: Rabbit Psoas Prep 11 (0.25 mg/mL)
Type: biochemical
Protocol: Overview: Myosin ATPase activity is assessed by using a coupled reaction system, in which ADP generated by the myosin ATPase function is coupled to the disappearance of NADH through the pyruvate kinase/lactate dehydrogenase (PK-LDH) system. Myosin ATPase activity produces ADP, which is used as a substrate for PK to produce pyruvate and regenerate ATP. The pyruvate is then used as a substrate by LDH to oxidize NADH to NAD+. The rate of the reaction is monitored through the time-dependent disappearance of NADH using absorbance at 340 nm. Inhibition of ATPase activity by the assayed compounds is indicated by a reduced rate of NADH loss, relative to vehicle-treated controls, over the experimental time window. To assess the selectivity of the assayed compounds for skeletal myofibrils, the compounds are counter-screened in cardiac myofibrils.
Materials: The following stock solutions and reagents were used in the Skeletal Myofibril ATPase Assay:
Stock Solutions of pCa buffer. Combine PIPES, CaCl2, and EGTA solutions with 70 mL of water. Adjust pH to 7.0 and bring final volume to 100 mL.
Buffer A & Buffer B. Buffers were stored on ice until use.
Skeletal Myofibril ATPase Assay Procedure: BSA, ATP, NADH, PEP, and DTT solutions were thawed at room temperature, then transferred to ice. Pellet-frozen myofibrils were transferred with approximately twice the required volume into a sufficiently large tube and capped. Myofibrils were thawed by rolling in a water bath for approximately 15 min at room temperature and cooled on ice. Buffers A and B were prepared by adjusting volumes as necessary for required number of wells and stored on ice. 0.5 μL of the compounds to be assayed were added into wells. 25 μL of Buffer A was dispensed into the wells, followed by 25 μL of Buffer B. The wells were measured for absorbance at 340 nm, using a kinetic protocol in which the wells are read every 1.5-2 min for 45 min. The slope of the data was approximated by subtracting the minimum absorbance value from the maximum value for each well. This was accomplished either in the SoftMax Pro software or in a spreadsheet program such as Excel. Using GraphPad Prism 8.0, the data was normalized by assigning a value of 100% to the 1% DMSO vehicle wells. Typically, a normalized 0% value was simply assigned to a (Max−Min) value of 0. The normalized data was fit to a Four Parameter Logistic sigmoidal equation, constraining the bottom to be 0 or greater. Compounds of Table 1 to 4 were tested and results of the assay appear in Table 5 herein. A=IC50 is less than or equal to 10 μM; B=IC50 is greater than 10 μM and less than 100 μM; C=IC50 is greater than 100 μM.

| SMILES | IC50 [µM] |
| --- | --- |
| O=c1ccc(-c2cnc(OCCOC(F)F)nc2)nn1Cc1ccc(Cl)cc1 [Compound 1, 2-(4-chlorobenzyl)-6-(2-(2-(difluoromethoxy)ethoxy)pyrimidin-5-yl)pyridazin-3(2H)-one] | < 10 |
| O=c1ccc(-c2cnc(OCCOC(F)(F)F)nc2)nn1Cc1ccc(Cl)cc1 [Compound 2, 2-(4-chlorobenzyl)-6-(2-(2-(trifluoromethoxy)ethoxy)pyrimidin-5-yl)pyridazin-3(2H)-one] | < 10 |
| O=c1ccc(-c2cnc(N3CC(C(F)(F)F)C3)nc2)nn1Cc1ccc(Cl)cc1 [Compound 4, 2-(4-chlorobenzyl)-6-(2-(3-(trifluoromethyl)azetidin-1-yl)pyrimidin-5-yl)pyridazin-3(2H)-one] | < 10 |
| O=c1ccc(-c2cnc(OCC(F)(F)F)nc2)nn1Cc1ccc(Cl)cc1 [Compound 5, 2-(4-chlorobenzyl)-6-(2-(2,2,2-trifluoroethoxy)pyrimidin-5-yl)pyridazin-3(2H)-one] | < 10 |
| O=c1ccc(-c2cnc(NCC(F)(F)F)nc2)nn1Cc1ccc(Cl)cc1 [Compound 6, 2-(4-chlorobenzyl)-6-(2-((2,2,2-trifluoroethyl)amino)pyrimidin-5-yl)pyridazin-3(2H)-one] | < 10 |
| O=c1ccc(-c2cnc(OCC(F)(F)F)nc2)nn1Cc1ccc(O)c(Cl)c1 [Compound 7, 2-(3-chloro-4-hydroxybenzyl)-6-(2-(2,2,2-trifluoroethoxy)pyrimidin-5-yl)pyridazin-3(2H)-one] | < 10 |
| O=c1ccc(-c2cnc(NC3CC3)nc2)nn1Cc1ccc(Cl)cc1 [Compound 8, 2-(4-chlorobenzyl)-6-(2-(cyclopropylamino)pyrimidin-5-yl)pyridazin-3(2H)-one] | < 10 |
| O=c1ccc(-c2cnc(N3CC(OC(F)F)C3)nc2)nn1Cc1ccc(Cl)cc1 [Compound 9, 2-(4-chlorobenzyl)-6-(2-(3-(difluoromethoxy)azetidin-1-yl)pyrimidin-5-yl)pyridazin-3(2H)-one] | < 10 |
| O=c1ccc(-c2cnc(OC(F)F)nc2)nn1Cc1ccc(Cl)cc1 [Compound 10, 2-(4-chlorobenzyl)-6-(2-(difluoromethoxy)pyrimidin-5-yl)pyridazin-3(2H)-one] | < 10 |
| O=c1ccc(-c2ccc(OCC(F)(F)F)nc2)nn1Cc1ccc(Cl)cc1 [Compound 11, 2-(4-chlorobenzyl)-6-(6-(2,2,2-trifluoroethoxy)pyridin-3-yl)pyridazin-3(2H)-one] | < 10 |
| CNc1ncc(-c2ccc(=O)n(Cc3ccc(Cl)cc3)n2)cn1 [Compound 12, 2-(4-chlorobenzyl)-6-(2-(methylamino)pyrimidin-5-yl)pyridazin-3(2H)-one] | < 10 |
| O=c1ccc(-c2ccc(OC(F)(F)F)nc2)nn1Cc1ccc(Cl)cc1 [Compound 13, 2-(4-chlorobenzyl)-6-(6-(trifluoromethoxy)pyridin-3-yl)pyridazin-3(2H)-one] | < 10 |
| O=c1ccc(-c2cnc(N3CC4(C3)CC(F)(F)C4)nc2)nn1Cc1ccc(Cl)cc1 [Compound 14, 2-(4-chlorobenzyl)-6-(2-(6,6-difluoro-2-azaspiro[3.3]heptan-2-yl)pyrimidin-5-yl)pyridazin-3(2H)-one] | < 10 |
| O=c1ccc(-c2ccc(OC(F)F)nc2)nn1Cc1ccc(Cl)c(F)c1 [Compound 15, 2-(4-chloro-3-fluorobenzyl)-6-(6-(difluoromethoxy)pyridin-3-yl)pyridazin-3(2H)-one] | < 10 |
| CC1CCCN1c1ncc(-c2ccc(=O)n(Cc3ccc(F)cc3F)n2)cn1 (stereo not shown) [Compound 16, 2-(2,4-difluorobenzyl)-6-(2-(2-methylpyrrolidin-1-yl)pyrimidin-5-yl)pyridazin-3(2H)-one] | < 10 |
| COc1ccc(-c2ccc(=O)n(Cc3ccc(Cl)cc3)n2)cn1 [Compound 17, 2-(4-chlorobenzyl)-6-(6-methoxypyridin-3-yl)pyridazin-3(2H)-one] | < 10 |
| O=c1ccc(-c2cnc(N3CC(OC(F)(F)F)C3)nc2)nn1Cc1ccc(Cl)cc1 [Compound 18, 2-(4-chlorobenzyl)-6-(2-(3-(trifluoromethoxy)azetidin-1-yl)pyrimidin-5-yl)pyridazin-3(2H)-one] | < 10 |

| SMILES | IC50 [µM] |
| --- | --- |
| O=c1ccc(-c2ccc(OC(F)F)nc2)nn1Cc1ccc(Cl)cc1 [Compound 19, 2-(4-chlorobenzyl)-6-(6-(difluoromethoxy)pyridin-3-yl)pyridazin-3(2H)-one] | < 10 |
| O=c1ccc(-c2ccc(OC(F)F)nc2)nn1Cc1ccc(F)c(Cl)c1 [Compound 20, 2-(3-chloro-4-fluorobenzyl)-6-(6-(difluoromethoxy)pyridin-3-yl)pyridazin-3(2H)-one] | < 10 |
| O=c1ccc(-c2ccc(OCC3(F)COC3)nc2)nn1Cc1ccc(Cl)cc1 [Compound 21, 2-(4-chlorobenzyl)-6-(6-((3-fluorooxetan-3-yl)methoxy)pyridin-3-yl)pyridazin-3(2H)-one] | < 10 |
| O=c1ccc(-c2cnc(OCC3(F)COC3)nc2)nn1Cc1ccc(Cl)cc1 [Compound 22, 2-(4-chlorobenzyl)-6-(2-((3-fluorooxetan-3-yl)methoxy)pyrimidin-5-yl)pyridazin-3(2H)-one] | < 10 |
| O=c1ccc(-c2cnc(N3CCCC3)nc2)nn1Cc1ccc(F)cc1F [Compound 23, 2-(2,4-difluorobenzyl)-6-(2-(pyrrolidin-1-yl)pyrimidin-5-yl)pyridazin-3(2H)-one] | < 10 |
| O=c1ccc(-c2cnc(OCC3(F)COC3)nc2)nn1Cc1ccc(F)cc1F [Compound 24, 2-(2,4-difluorobenzyl)-6-(2-((3-fluorooxetan-3-yl)methoxy)pyrimidin-5-yl)pyridazin-3(2H)-one] | < 10 |
| O=c1ccc(-c2cnc(OCC3COC3)nc2)nn1Cc1ccc(F)cc1F [Compound 25, 2-(2,4-difluorobenzyl)-6-(2-(oxetan-3-ylmethoxy)pyrimidin-5-yl)pyridazin-3(2H)-one] | < 10 |
| CC(=O)Nc1ncc(-c2ccc(=O)n(Cc3ccc(Cl)cc3)n2)cn1 [Compound 26, N-(5-(1-(4-chlorobenzyl)-6-oxo-1,6-dihydropyridazin-3-yl)pyrimidin-2-yl)acetamide] | < 10 |
| CN(C)c1ccc(-c2ccc(=O)n(Cc3ccc(Cl)cc3)n2)cn1 [Compound 27, 2-(4-chlorobenzyl)-6-(6-(dimethylamino)pyridin-3-yl)pyridazin-3(2H)-one] | < 10 |
| CN1CCC(F)(COc2ccc(-c3ccc(=O)n(Cc4ccc(Cl)cc4)n3)cn2)CC1 [Compound 28, 2-(4-chlorobenzyl)-6-(6-((4-fluoro-1-methylpiperidin-4-yl)methoxy)pyridin-3-yl)pyridazin-3(2H)-one] | > 100 |
| CN(CC(F)(F)F)c1ncc(-c2ccc(=O)n(Cc3ccc(F)cc3F)n2)cn1 [Compound 29, 2-(2,4-difluorobenzyl)-6-(2-(methyl(2,2,2-trifluoroethyl)amino)pyrimidin-5-yl)pyridazin-3(2H)-one] | < 10 |
| O=c1ccc(-c2cnc(N3CCCC3C(F)(F)F)nc2)nn1Cc1ccc(F)cc1F (stereo not shown) [Compound 30, 2-(2,4-difluorobenzyl)-6-(2-(2-(trifluoromethyl)pyrrolidin-1-yl)pyrimidin-5-yl)pyridazin-3(2H)-one] | < 10 |
| O=c1ccc(-c2cnc(OCC(F)(F)F)nc2)nn1Cc1ccccc1 [Compound 31, 2-benzyl-6-(2-(2,2,2-trifluoroethoxy)pyrimidin-5-yl)pyridazin-3(2H)-one] | < 10 |
| O=c1ccc(-c2cnc(NCC(F)F)nc2)nn1Cc1ccc(Cl)cc1 [Compound 32, 2-(4-chlorobenzyl)-6-(2-((2,2-difluoroethyl)amino)pyrimidin-5-yl)pyridazin-3(2H)-one] | < 10 |
| O=c1ccc(-c2cnc(OCC3COC3)nc2)nn1Cc1ccc(Cl)cc1 [Compound 33, 2-(4-chlorobenzyl)-6-(2-(oxetan-3-ylmethoxy)pyrimidin-5-yl)pyridazin-3(2H)-one] | < 10 |
| O=c1ccc(-c2cnc(OCC(F)(F)F)nc2)nn1Cc1cccc(Cl)c1 [Compound 34, 2-(3-chlorobenzyl)-6-(2-(2,2,2-trifluoroethoxy)pyrimidin-5-yl)pyridazin-3(2H)-one] | < 10 |
| O=c1ccc(-c2cnc(OCC(F)(F)F)nc2)nn1Cc1cccc(F)c1 [Compound 35, 2-(3-fluorobenzyl)-6-(2-(2,2,2-trifluoroethoxy)pyrimidin-5-yl)pyridazin-3(2H)-one] | < 10 |
